Patent publication US20100063047A1 (KALYPSYS, INC., priority 2008, published 2010)
pEC50: −log10 of the molar value.

How the values were obtained:
[1] = tested on: tissue eosinophil peroxidase (EPO); assay: Allergic conjunctivitis in passively sensitized guinea pigs, conjunctival EPO activity; format: in vivo; design: key: a test compound was assigned a “+” if a ≦0.1% qd dose was statistically equivalent to dexamethasone with respect to reduction of EPO activity; a “−” was assigned if the compound was statistically inferior to dexamethasone and not different than vehicle; conditions: ≦0.1% qd topical dose (1 hour prior to challenge); reduction of conjunctival EPO activity 24 h after ovalbumin challenge, compared with 0.1% w/v dexamethasone; guinea pig
Method: (§1) Allergic Conjunctivitis in Passively Sensitized Guinea Pigs
Male Hartley VAF outbred guinea pigs were passively sensitized to ovalbumin by a single OD subconjunctival injection of undiluted guinea pig anti-ovalbumin antiserum 24 hours before OD topical challenge with 500 μg ovalbumin in saline. Control animals were injected with saline only and challenged with ovalbumin. To determine acute phase drug efficacy, 30 min after challenge animals were clinically scored by a masked observer for severity of signs of conjunctivitis based on a standard scale. Test compounds were administered topically 1 hour prior to challenge (QD protocol), or 1 hour prior to challenge and again 8 hours after challenge (BID protocol). […] EPO activity in supernatants was measured by reacting diluted homogenates with a solution of 6 mM o-phenylenediamine substrate and 8.8 mM H2O2 in homogenization buffer for 3 min. The reaction was stopped with 4M H2SO4 and absorbances were measured at 490 nm on a spectrophotometric plate reader. Total EPO in samples was calculated from a standard curve of recombinant human EPO in each assay. […] Background EPO activity was determined from the unsensitized, antigen-challenged control group. Percent inhibition was calculated from the sensitized, antigen-challenged, vehicle-treated control group in each experiment. […]

human H1 = target: T1, human H1 (Homo sapiens, UniProt P35367); assay: In vitro histamine H1 receptor cell-based aequorin bioluminescence antagonist assay; conditions: CHO-K1 cells expressing human H1 and aequorin; histamine at EC80; read-out: H1 Antagonist EC50
T1 construct: host or cells: CHO-K1, also expressing mitochondrion-targeted aequorin
T1 sequence (P35367 whole entry): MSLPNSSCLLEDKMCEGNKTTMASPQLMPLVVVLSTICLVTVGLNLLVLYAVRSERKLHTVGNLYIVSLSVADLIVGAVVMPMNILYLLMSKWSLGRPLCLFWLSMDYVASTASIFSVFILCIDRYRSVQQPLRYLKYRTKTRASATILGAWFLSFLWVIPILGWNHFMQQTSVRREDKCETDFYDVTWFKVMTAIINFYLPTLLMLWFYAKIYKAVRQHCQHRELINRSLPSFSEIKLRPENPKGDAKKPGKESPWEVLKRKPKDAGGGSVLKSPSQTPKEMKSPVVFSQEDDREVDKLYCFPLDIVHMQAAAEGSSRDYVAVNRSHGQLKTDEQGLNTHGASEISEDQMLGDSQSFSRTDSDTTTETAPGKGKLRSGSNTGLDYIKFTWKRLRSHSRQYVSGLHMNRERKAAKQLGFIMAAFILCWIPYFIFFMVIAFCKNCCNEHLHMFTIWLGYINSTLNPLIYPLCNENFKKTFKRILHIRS
In short: (§2)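 CHO-K1 cells stably expressing human H1 or H4 plus mitochondrial aequorin (H4 also with Gα16), loaded with 5 μM coelenterazine-h for 4 h at ~21 °C. Compounds preincubated 15 min at room temperature, then histamine at EC80 added.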

[2] = tested on: tissue eosinophil peroxidase (EPO); assay: Allergic conjunctivitis in passively sensitized guinea pigs, conjunctival EPO activity; format: in vivo; design: key: a test compound was assigned a “+” if a 0.01% bid dose was statistically equivalent to dexamethasone with respect to reduction of EPO activity; a “−” was assigned if the compound was statistically inferior to dexamethasone and not different than vehicle; conditions: reduction of conjunctival EPO activity 24 h after ovalbumin challenge, compared with 0.1% w/v dexamethasone, guinea pig; for BID activity: 0.01% bid topical dose (1 hour prior to and 8 hours after challenge); for QD activity: ≦0.1% qd topical dose (1 hour prior to challenge)
Method: as §1
Male Hartley VAF outbred guinea pigs were passively sensitized to ovalbumin by a single OD subconjunctival injection of undiluted guinea pig anti-ovalbumin antiserum 24 hours before OD topical challenge with 500 μg ovalbumin in saline. Control animals were injected with saline only and challenged with ovalbumin. To determine acute phase drug efficacy, 30 min after challenge animals were clinically scored by a masked observer for severity of signs of conjunctivitis based on a standard scale. Test compounds were administered topically 1 hour prior to challenge (QD protocol), or 1 hour prior to challenge and again 8 hours after challenge (BID protocol). Twenty-four hours after challenge, animals were euthanized and conjunctivae were harvested for determination of tissue eosinophil peroxidase (EPO) concentration as a marker of allergic inflammation. Homogenates of freshly collected tissues were prepared by shaking the tissues in 2 mL round-bottom tubes containing 0.5 mL of homogenization buffer (50 mM Tris HCl, pH 8.0, 6 mM KBr) and one 5-mm stainless steel bead on a Qiagen TissueLyser at 30 Hz for 5 min. Homogenates were frozen and thawed once, then centrifuged at 10,000 rpm for 5 min. EPO activity in supernatants was measured by reacting diluted homogenates with a solution of 6 mM o-phenylenediamine substrate and 8.8 mM H2O2 in homogenization buffer for 3 min. The reaction was stopped with 4M H2SO4 and absorbances were measured at 490 nm on a spectrophotometric plate reader. Total EPO in samples was calculated from a standard curve of recombinant human EPO in each assay. EPO activity was normalized to total protein concentration (Pierce BCA assay) in supernatants. Background EPO activity was determined from the unsensitized, antigen-challenged control group. Percent inhibition was calculated from the sensitized, antigen-challenged, vehicle-treated control group in each experiment. Ovalbumin-injected animals dosed topically with 0.1% w/v dexamethasone (dex) served as positive control. Groups were compared by ANOVA with Dunnett's or Tukey's post-hoc tests where appropriate with significance assigned at the 95% confidence level.
The table below summarizes the results.

human H4 = target: T2, human H4 (Homo sapiens, UniProt Q9H3N8); assay: In vitro histamine H4 receptor cell-based aequorin bioluminescence antagonist assay; conditions: CHO-K1 cells expressing human H4, aequorin and Gα16; histamine at EC80
T2 construct: host or cells: CHO-K1, also expressing mitochondrion-targeted aequorin and human Gα16
In short: as §2

| pEC50 (human H1) | pEC50 (human H4) | Structure (SMILES) | QD activity [1] | BID activity [2] | QD activity [2] |
| --- | --- | --- | --- | --- | --- |
| < 5.00 |  | Cc1csc2ncnc(NC3Cc4ccccc4C3)c12 [Example 29, N-(2,3-dihydro-1H-inden-2-yl)-5-methylthieno[2,3-d]pyrimidin-4-amine] | + |  |  |
| < 5.00 |  | Clc1ccc(CCNc2ncnc3sccc23)cc1 [Example 45, N-[2-(4-chlorophenyl)ethyl]thieno[2,3-d]pyrimidin-4-amine] |  | + | − |
| < 5.00 | < 5.00 | Cc1csc2ncnc(NCc3ccccn3)c12 [Example 85, 5-methyl-N-(pyridin-2-ylmethyl)thieno[2,3-d]pyrimidin-4-amine] | + |  |  |
| < 5.00 | < 5.00 | Clc1ccc(CCNc2nccc3sccc23)cc1 [Example 27, N-(4-chlorophenethyl)thieno[3,2-c]pyridin-4-amine] |  | + | − |
